Reference: patent EP0745595A1, “3-(3-Aryloxyphenyl)-1-(substituted methyl)-s-triazine-2,4,6-oxo or thiotrione herbicidal agents” (American Cyanamid Company, priority 1995, dated 1996)

Legend:
Format in all cases: in vivo
SAGITTARIA PYGMAEA, L. = assay: Preemergence weed control under flooded paddy conditions, SAGPY (Arrowhead (Pygmaea)); details: pre-weed
Summary of the method: (§1)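 Flooded paddy preemergence test: seeds/propagating organs in top 0.5 cm silt loam, water held 1.5-3 cm above soil. Dosing by pipette into flood water, aqueous/acetone 50/50 v/v, ~0.5, 0.25, 0.125, 0.063 kg/ha a.i. Greenhouse; read at 3-4 wk, 0-9 visual scale.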

[1] = system: GLYCINE MAX(L) MERR. CV. WILLIAMS; assay: Postemergence herbicidal evaluation, GLXMAW (Soybean, Williams); design: key to GLXMAW rating / Herbicidal effect rating, GLXMAW / GLXMAW: 0-9 visual rating scale vs untreated control
Summary of the method: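 Soybean seedlings (Williams) were raised in jiffy flats for roughly two weeks, then sprayed postemergence through a nozzle at 40 psi with test compound dispersed in 50/50 acetone/water containing 0.5% TWEEN®20. Treated plants were kept on greenhouse benches under normal care and visually rated on a 0-9 scale four to five weeks later.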

[2] = system: CYPERUS SEROTINUS, ROTTB.; assay: Preemergence weed control under flooded paddy conditions, CYPSE (Flatsedge); details: pre-weed
Summary of the method: as §1

[3] = system: GLYCINE MAX(L) MERR. CV. WILLIAMS; assay: Preemergence herbicidal evaluation, GLXMAW (Soybean, Williams); details: for GLXMAW herbicidal rating: rated four to five weeks after treatment
Summary of the method: (§2)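 Seeds mixed with potting soil were planted on about one inch of soil in cups, then sprayed with aqueous acetone solution of test compound at about 0.125 to 0.50 kg per hectare. Plants grown under greenhouse conditions; visual rating on a 0-9 scale versus untreated control at 4-5 weeks.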

[4] = system: ORYZA SATIVA, L. TEBONNET; assay: Postemergence herbicidal evaluation, ORYSAT (Rice, Tebonnet); design: key: 0-9 visual rating scale vs untreated control
Procedure: In the tests, seedling plants are grown in jiffy flats for about two weeks. The test compounds are dispersed in 50/50 acetone/water mixtures containing 0.5% TWEEN®20, a polyoxyethylene sorbitan monolaurate surfactant of Atlas Chemical Industries, in sufficient quantities to provide the equivalent of about 0.125 kg to 0.500 kg per hectare of active compound when applied to the plants through a spray nozzle operating at 40 psi for a predetermined time. After spraying, the plants are placed on greenhouse benches and are cared for in the usual manner, commensurate with conventional greenhouse practices. From four to five weeks after treatment, the seedling plants are examined and rated according to the rating system set forth below. Where more than one test is involved for a given compound, the data are averaged.
Plant species employed in these evaluations are reported by header abbreviation, common name and scientific name.
Results of herbicide evaluation are expressed on a rating scale (0-9). The scale is based upon a visual observation of plant stand, vigor, malformation, size, chlorosis and overall plant appearance as compared with a control.

[…], PRESL. = Preemergence weed control under flooded paddy conditions, MOOVA (Monochoria); details: for MOOVA: pre-weed; for Herbicidal effect rating, MOOVA: preemergence, 3-4 weeks after treatment
Summary of the method: as §1

CASSIA OBTUSIFOLIA, L. = assay: Postemergence herbicidal evaluation, CASOB (Sicklepod); design: key to CASOB rating / Herbicidal effect rating, CASOB / CASOB: 0-9 visual rating scale vs untreated control
Summary of the method: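 Visual 0–9 scores reflect stand, vigor, malformation, size, chlorosis and overall appearance relative to control, taken 4–5 weeks after spraying two-week-old seedlings with about 0.125–0.500 kg/ha compound in acetone/water/TWEEN 20.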

ZEA MAYS L. = assay: Preemergence herbicidal evaluation, ZEAMX (Corn, Field)
Summary of the method: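 Corn (Zea mays) seeds were mixed with potting soil and planted on about one inch of soil in pint cups, then treated preemergence. Cups were kept on greenhouse benches, watered and maintained conventionally, and after four to five weeks were visually rated on a 0-9 scale versus an untreated control.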

GALIUM APARINE = assay: Preemergence herbicidal evaluation, GALAP (Galium); details: four to five weeks after treatment
Summary of the method: as §2

CYPERUS IRIA = assay: Preemergence weed control under flooded paddy conditions, CYPIR (Rice Flatsedge); details: for Herbicidal effect rating, CYPIR: preemergence, 3-4 weeks after treatment; for CYPIR: pre-weed
Summary of the method: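 Seeds or propagating organs of rice flatsedge were planted in the top 0.5 cm of silt loam soil in 32 oz. plastic containers, 10.5 cm across and without drainage holes. Water was kept 1.5 to 3 cm above the soil throughout. Treated containers were kept on greenhouse benches, and herbicidal effect was visually rated on a 0-9 scale against a control.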

In the case of `Cn1c(=O)[nH]c(=O)n(-c2cc(Oc3c(F)cc(C(F)(F)F)cc3Cl)ccc2F)c1=O` [C, reference compound], the SAGPY (SAGITTARIA PYGMAEA, L.; Rate 0.031 kg/ha) is reported as 0.0, the SAGPY (SAGITTARIA PYGMAEA, L.; Rate 0.063 kg/ha) is reported as 0.0 and the SAGPY (SAGITTARIA PYGMAEA, L.; Rate 0.125 kg/ha) is reported as 0.0. For the same compound, the SAGPY (SAGITTARIA PYGMAEA, L.; Rate 0.250 kg/ha) was 0.0, the “Herbicidal effect rating, GLXMAW” value ([1]; 0.031 kg/ha) was 3.5 and the “Herbicidal effect rating, GLXMAW” value ([1]; 0.063 kg/ha) was 4.5. For the same compound, the “Herbicidal effect rating, GLXMAW” value ([1]; 0.125 kg/ha) was 4.5, the “Herbicidal effect rating, GLXMAW” value ([1]; 0.250 kg/ha) was 5.0 and the CYPSE ([2]; Rate 0.031 kg/ha) was 0.0. For the same compound, the CYPSE ([2]; Rate 0.063 kg/ha) was 0.0, the CYPSE ([2]; Rate 0.125 kg/ha) was 0.0 and the CYPSE ([2]; Rate 0.250 kg/ha) was 0.0. The GLXMAW ([3]; Rate 0.031 kg/ha) was 0.0, the GLXMAW ([3]; Rate 0.063 kg/ha) was 0.0 and the GLXMAW ([3]; Rate 0.125 kg/ha) was 0.0. The GLXMAW ([3]; Rate 0.250 kg/ha) was 0.0, the “Herbicidal effect rating, ORYSAT” value ([4]; 0.031 kg/ha) was 3.0 and the “Herbicidal effect rating, ORYSAT” value ([4]; 0.063 kg/ha) was 3.5. For the same compound, the “Herbicidal effect rating, ORYSAT” value ([4]; 0.125 kg/ha) was 3.5, the “Herbicidal effect rating, ORYSAT” value ([4]; 0.250 kg/ha) was 3.5 and the MOOVA ([…], PRESL.; Rate 0.031 kg/ha) was 9.0. It also gave an MOOVA ([…], PRESL.; Rate 0.063 kg/ha) of 9.0, an MOOVA ([…], PRESL.; Rate 0.125 kg/ha) of 9.0 and an MOOVA ([…], PRESL.; Rate 0.250 kg/ha) of 9.0. For the same compound, the “Herbicidal effect rating, CASOB” value (CASSIA OBTUSIFOLIA, L.; 0.031 kg/ha) was 2.0, the “Herbicidal effect rating, CASOB” value (CASSIA OBTUSIFOLIA, L.; 0.063 kg/ha) was 4.0 and the “Herbicidal effect rating, CASOB” value (CASSIA OBTUSIFOLIA, L.; 0.125 kg/ha) was 4.0. For the same compound, the “Herbicidal effect rating, CASOB” value (CASSIA OBTUSIFOLIA, L.; 0.250 kg/ha) was 6.0, the ZEAMX (ZEA MAYS L.; Rate 0.031 kg/ha) was 0.0 and the ZEAMX (ZEA MAYS L.; Rate 0.063 kg/ha) was 0.0. It also gave a ZEAMX (ZEA MAYS L.; Rate 0.125 kg/ha) of 0.0 and a ZEAMX (ZEA MAYS L.; Rate 0.250 kg/ha) of 0.0.

With `COC(=O)Cn1c(=O)n(C)c(=O)n(-c2cc(Oc3c(F)cc(C(F)(F)F)cc3Cl)ccc2F)c1=O` [Compound 4, Methyl 3-{5-[(2-chloro-α,α,α,6-tetrafluoro-p-tolyl)oxy]-2-fluorophenyl}tetrahydro-5-methyl-2,4,6-trioxo-s-triazine-1(2H)-acetate] the “Herbicidal effect rating, GLXMAW” value ([1]; 0.031 kg/ha) was 5.1, the “Herbicidal effect rating, GLXMAW” value ([1]; 0.063 kg/ha) was 5.7 and the “Herbicidal effect rating, GLXMAW” value ([1]; 0.125 kg/ha) was 6.4. The “Herbicidal effect rating, GLXMAW” value ([1]; 0.250 kg/ha) was 7.3, the GALAP rating (GALIUM APARINE; Rate 0.125 kg/ha) was 7.3 and the GALAP rating (GALIUM APARINE; Rate 0.250 kg/ha) was 9.0. For the same compound, the GALAP rating (GALIUM APARINE; Rate 0.500 kg/ha) was 9.0, the “Herbicidal effect rating, ORYSAT” value ([4]; 0.031 kg/ha) was 4.6 and the “Herbicidal effect rating, ORYSAT” value ([4]; 0.063 kg/ha) was 5.0. The “Herbicidal effect rating, ORYSAT” value ([4]; 0.125 kg/ha) was 5.7, the “Herbicidal effect rating, ORYSAT” value ([4]; 0.250 kg/ha) was 6.4 and the “Herbicidal effect rating, CASOB” value (CASSIA OBTUSIFOLIA, L.; 0.031 kg/ha) was 8.6. The “Herbicidal effect rating, CASOB” value (CASSIA OBTUSIFOLIA, L.; 0.063 kg/ha) was 8.4, the “Herbicidal effect rating, CASOB” value (CASSIA OBTUSIFOLIA, L.; 0.125 kg/ha) was 9.0 and the “Herbicidal effect rating, CASOB” value (CASSIA OBTUSIFOLIA, L.; 0.250 kg/ha) was 8.4.

With `COC(=O)Cn1c(=O)n(C)c(=O)n(-c2cc(Oc3ccc(C(F)(F)F)cc3Cl)ccc2Cl)c1=O` [Compound 39, Methyl 3-{[2-chloro-5-(2-chloro-α,α,α-trifluoro-p-tolyl)oxy]phenyl}tetrahydro-5-methyl-2,4,6-trioxo-s-triazine-1(2H)-acetate] the GLXMAW ([1]; Rate 0.016 kg/ha) was 3.8, the GLXMAW ([1]; Rate 0.032 kg/ha) was 4.5 and the GLXMAW ([1]; Rate 0.063 kg/ha) was 5.3. It also gave a GLXMAW ([1]; Rate 0.125 kg/ha) of 5.5, a GLXMAW ([1]; Rate 0.250 kg/ha) of 6.3 and a GLXMAW ([1]; Rate 0.500 kg/ha) of 7.0. The GLXMAW herbicidal rating ([3]; Rate 0.125 kg/ha) was 2.0, the GLXMAW herbicidal rating ([3]; Rate 0.250 kg/ha) was 2.0 and the GLXMAW herbicidal rating ([3]; Rate 0.500 kg/ha) was 2.0. For the same compound, the ORYSAT ([4]; Rate 0.016 kg/ha) was 2.3, the ORYSAT ([4]; Rate 0.032 kg/ha) was 3.3 and the ORYSAT ([4]; Rate 0.063 kg/ha) was 4.8. For the same compound, the ORYSAT ([4]; Rate 0.125 kg/ha) was 4.3, the ORYSAT ([4]; Rate 0.250 kg/ha) was 4.8 and the ORYSAT ([4]; Rate 0.500 kg/ha) was 4.5. For the same compound, the “Herbicidal effect rating, MOOVA” value ([…], PRESL.; 0.063 kg/ha) was 9.0, the “Herbicidal effect rating, MOOVA” value ([…], PRESL.; 0.125 kg/ha) was 9.0 and the “Herbicidal effect rating, MOOVA” value ([…], PRESL.; 0.250 kg/ha) was 9.0. The “Herbicidal effect rating, MOOVA” value ([…], PRESL.; 0.500 kg/ha) was 9.0, the MOOVA ([…], PRESL.; Rate 0.031 kg/ha) was 9.0 and the MOOVA ([…], PRESL.; Rate 0.063 kg/ha) was 9.0. For the same compound, the MOOVA ([…], PRESL.; Rate 0.125 kg/ha) was 9.0, the MOOVA ([…], PRESL.; Rate 0.250 kg/ha) was 9.0 and the CASOB (CASSIA OBTUSIFOLIA, L.; Rate 0.016 kg/ha) was 6.0. It also gave a CASOB (CASSIA OBTUSIFOLIA, L.; Rate 0.032 kg/ha) of 9.0, a CASOB (CASSIA OBTUSIFOLIA, L.; Rate 0.063 kg/ha) of 9.0 and a CASOB (CASSIA OBTUSIFOLIA, L.; Rate 0.125 kg/ha) of 9.0. It also gave a CASOB rating (CASSIA OBTUSIFOLIA, L.; Rate 0.125 kg/ha) of 9.0, a CASOB (CASSIA OBTUSIFOLIA, L.; Rate 0.250 kg/ha) of 9.0 and a CASOB rating (CASSIA OBTUSIFOLIA, L.; Rate 0.250 kg/ha) of 9.0. For the same compound, the CASOB (CASSIA OBTUSIFOLIA, L.; Rate 0.500 kg/ha) was 9.0, the CASOB rating (CASSIA OBTUSIFOLIA, L.; Rate 0.500 kg/ha) was 9.0 and the “Herbicidal effect rating, CYPIR” value (CYPERUS IRIA; 0.063 kg/ha) was 9.0. The “Herbicidal effect rating, CYPIR” value (CYPERUS IRIA; 0.125 kg/ha) was 9.0, the “Herbicidal effect rating, CYPIR” value (CYPERUS IRIA; 0.250 kg/ha) was 9.0 and the “Herbicidal effect rating, CYPIR” value (CYPERUS IRIA; 0.500 kg/ha) was 9.0. The CYPIR (CYPERUS IRIA; Rate 0.031 kg/ha) was 9.0, the CYPIR (CYPERUS IRIA; Rate 0.063 kg/ha) was 9.0 and the CYPIR (CYPERUS IRIA; Rate 0.125 kg/ha) was 9.0. It also gave a CYPIR (CYPERUS IRIA; Rate 0.250 kg/ha) of 9.0.
